Test results as given in US12559506B2, “Indazole based compounds and associated methods of use” (Arvinas Operations, Inc., priority 2021, dated 2026).
Like-named read-outs stand apart in the source and are kept apart here.

Biological target: T1, LRRK2 (endogenous, HiBit tagged) (Homo sapiens, UniProt Q5S007)
T1 construct: endogenous in cells; host or cells: HEK293 cells with HiBit knock-in at the endogenous LRRK2 locus, stably expressing firefly luciferase
Assay: Endogenous LRRK2 degradation assay, endogenous gene C-terminally HiBit-tagged in HEK293 cells (Nano-Glo Dual Luciferase)
Format: cell-based
In short: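 LRRK2-HiBit quantified via Nano-Glo Dual Luciferase in HEK293 knock-in cells co-expressing firefly luciferase, after 24 h exposure to compound (1 μM final top, 1:3, 11 points). Values normalised to DMSO median per plate and curve-fitted; Alamar Blue viability run alongside.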

[1] = endogenous HiBit-tagged LRRK2, HEK293 cells, 24 hours, read-out: **Endogenous WT Dmax (%)
[2] = endogenous HiBit-tagged LRRK2, HEK293 cells, 24 hours, read-out: *Endogenous WT DC50
[3] = endogenous HiBit-tagged LRRK2 in HEK293 cells, 24 hours treatment, read-out: **Endogenous WT Dmax (%)
[4] = endogenous HiBit-tagged LRRK2 in HEK293 cells, 24 hours treatment, read-out: *Endogenous WT DC50
[5] = endogenous HiBit-tagged LRRK2 in HEK293 cells, 24 hours treatment, read-out: Endogenous WT DC50
[6] = endogenous HiBit-tagged LRRK2 in HEK293 cells, 24 hours treatment, read-out: Endogenous WT Dmax

T1 sequence (Q5S007 whole entry): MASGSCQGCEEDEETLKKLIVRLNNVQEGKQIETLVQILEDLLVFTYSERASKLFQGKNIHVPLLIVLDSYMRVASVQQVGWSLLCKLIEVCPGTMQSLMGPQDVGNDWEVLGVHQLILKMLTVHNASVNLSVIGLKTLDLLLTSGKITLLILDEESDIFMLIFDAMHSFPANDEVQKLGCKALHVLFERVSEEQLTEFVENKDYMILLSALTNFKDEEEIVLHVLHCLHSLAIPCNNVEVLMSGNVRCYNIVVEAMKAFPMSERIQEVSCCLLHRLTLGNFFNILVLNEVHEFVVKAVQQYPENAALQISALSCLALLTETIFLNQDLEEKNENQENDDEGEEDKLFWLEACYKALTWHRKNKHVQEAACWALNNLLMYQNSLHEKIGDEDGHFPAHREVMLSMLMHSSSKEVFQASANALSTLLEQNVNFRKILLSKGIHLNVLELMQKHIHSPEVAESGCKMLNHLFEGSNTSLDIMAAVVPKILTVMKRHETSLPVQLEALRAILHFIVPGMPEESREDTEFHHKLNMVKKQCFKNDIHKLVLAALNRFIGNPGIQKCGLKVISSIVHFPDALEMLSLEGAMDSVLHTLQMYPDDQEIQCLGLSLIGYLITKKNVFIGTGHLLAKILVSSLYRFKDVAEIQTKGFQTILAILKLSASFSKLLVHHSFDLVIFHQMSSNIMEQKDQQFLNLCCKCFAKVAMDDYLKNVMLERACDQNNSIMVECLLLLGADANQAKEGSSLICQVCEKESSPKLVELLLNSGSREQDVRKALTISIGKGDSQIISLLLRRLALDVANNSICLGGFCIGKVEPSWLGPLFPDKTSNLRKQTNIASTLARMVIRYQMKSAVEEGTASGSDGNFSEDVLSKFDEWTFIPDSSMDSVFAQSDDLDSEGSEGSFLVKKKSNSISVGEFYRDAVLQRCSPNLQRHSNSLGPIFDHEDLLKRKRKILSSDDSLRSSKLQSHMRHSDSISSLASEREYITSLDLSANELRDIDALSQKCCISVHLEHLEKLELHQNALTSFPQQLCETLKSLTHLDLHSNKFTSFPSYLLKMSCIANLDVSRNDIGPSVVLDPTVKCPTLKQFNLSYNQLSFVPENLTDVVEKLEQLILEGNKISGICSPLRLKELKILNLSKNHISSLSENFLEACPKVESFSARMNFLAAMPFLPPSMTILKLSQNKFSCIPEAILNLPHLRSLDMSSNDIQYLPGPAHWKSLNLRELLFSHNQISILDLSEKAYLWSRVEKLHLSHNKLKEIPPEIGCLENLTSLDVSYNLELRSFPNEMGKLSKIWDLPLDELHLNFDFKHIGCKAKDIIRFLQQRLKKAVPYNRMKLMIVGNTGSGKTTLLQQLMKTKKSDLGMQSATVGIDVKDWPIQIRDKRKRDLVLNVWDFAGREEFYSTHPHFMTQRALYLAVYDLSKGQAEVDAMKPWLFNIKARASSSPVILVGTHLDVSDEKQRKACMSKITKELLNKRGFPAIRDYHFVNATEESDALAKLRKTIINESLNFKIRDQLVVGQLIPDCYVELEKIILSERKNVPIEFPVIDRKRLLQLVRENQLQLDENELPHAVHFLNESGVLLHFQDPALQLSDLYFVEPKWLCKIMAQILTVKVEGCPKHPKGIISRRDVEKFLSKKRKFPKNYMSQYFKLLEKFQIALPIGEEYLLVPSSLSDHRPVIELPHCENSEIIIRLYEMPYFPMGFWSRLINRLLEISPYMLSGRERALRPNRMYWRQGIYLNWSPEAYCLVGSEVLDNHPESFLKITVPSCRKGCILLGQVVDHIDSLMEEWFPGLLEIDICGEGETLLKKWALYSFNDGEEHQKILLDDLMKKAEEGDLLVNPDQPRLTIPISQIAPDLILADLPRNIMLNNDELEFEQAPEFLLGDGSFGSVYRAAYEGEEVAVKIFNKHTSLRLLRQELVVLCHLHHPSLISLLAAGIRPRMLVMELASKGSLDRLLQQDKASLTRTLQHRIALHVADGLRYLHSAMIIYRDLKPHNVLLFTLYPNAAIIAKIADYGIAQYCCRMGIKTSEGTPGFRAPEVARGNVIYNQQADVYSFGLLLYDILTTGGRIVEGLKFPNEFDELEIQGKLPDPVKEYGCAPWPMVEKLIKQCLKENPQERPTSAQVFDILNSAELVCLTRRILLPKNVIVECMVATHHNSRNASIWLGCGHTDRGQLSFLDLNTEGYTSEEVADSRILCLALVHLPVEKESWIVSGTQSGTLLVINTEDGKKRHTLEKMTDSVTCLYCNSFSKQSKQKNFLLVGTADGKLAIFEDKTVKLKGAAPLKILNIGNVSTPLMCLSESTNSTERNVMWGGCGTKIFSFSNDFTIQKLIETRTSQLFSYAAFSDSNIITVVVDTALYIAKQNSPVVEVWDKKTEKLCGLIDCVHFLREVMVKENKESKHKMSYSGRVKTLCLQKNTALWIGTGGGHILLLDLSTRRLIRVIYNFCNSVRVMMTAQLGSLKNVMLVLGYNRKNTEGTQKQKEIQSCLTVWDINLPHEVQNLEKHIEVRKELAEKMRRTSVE

| Dmax [3] [%] | DC50 [4] [nM] | DC50 [5] [nM] | Dmax [6] [%] | further results | SMILES |
| --- | --- | --- | --- | --- | --- |
|  |  |  |  | Dmax [1]: ≥ 70%; DC50 [2]: < 10 nM | CC1(Oc2cc3c(-c4cc(N5CCC(CN6CCN(CC7CCN(c8ccc9c(c8)C(=O)N(C8CCC(=O)NC8=O)C9=O)CC7)CC6)CC5)ncn4)n[nH]c3cn2)CC1 (centres unmarked) [Compound 178, 2-(2,6-dioxo-3-piperidyl)-5-[4-[[4-[[1-[6-[5-(1-methylcyclopropoxy)-1H-pyrazolo[3,4-c]pyridin-3-yl]pyrimidin-4-yl]-4-piperidyl]methyl]piperazin-1-yl]methyl]-1-piperidyl]isoindoline-1,3-dione] |
| 50 to 70 | < 10 |  |  |  | CC1(Oc2ccc3[nH]nc(-c4cc(N5CCC(C(C)(C)N6CCN(CC7CCN(c8ccc9c(c8F)CN(C8CCC(=O)NC8=O)C9=O)CC7)CC6)CC5)ncn4)c3c2)CC1 (centres unmarked) [Compound 320, 3-{4-fluoro-5-[4-({4-[2-(1-{6-[5-(1-methylcyclopropoxy)-1H-indazol-3-yl]pyrimidin-4-yl}piperidin-4-yl)propan-2-yl]piperazin-1-yl}methyl)piperidin-1-yl]-1-oxo-2,3-dihydro-1H-isoindol-2-yl}piperidine-2,6-dione] |
| 50 to 70 | < 10 |  |  |  | COc1c(N2CCC(CN3CCN(CC4CCN(c5cc(-c6n[nH]c7cnc(OC8(C)CC8)cc67)ncn5)CC4)[C@H](C)C3)CC2)ccc2c1CN(C1CCC(=O)NC1=O)C2=O (stereo partly drawn) [Compound 257, 3-[4-methoxy-5-(4-{[(3R)-3-methyl-4-[(1-{6-[5-(1-methylcyclopropoxy)-1H-pyrazolo[3,4-c]pyridin-3-yl]pyrimidin-4-yl}piperidin-4-yl)methyl]piperazin-1-yl]methyl}piperidin-1-yl)-1-oxo-2,3-dihydro-1H-isoindol-2-yl]piperidine-2,6-dione] |
|  |  | < 10 | ≥ 70 |  | COc1cc(N2CCC(CN3CCC(F)(CN4CCN(c5cc(-c6n[nH]c7ccc(OC8(C)CC8)cc67)ncn5)CC4)CC3)CC2)cc2c1C(=O)N(C1CCC(=O)NC1=O)C2 (centres unmarked) [Compound 216, 3-{5-[4-({4-fluoro-4-[(4-{6-[5-(1-methylcyclopropoxy)-1H-indazol-3-yl]pyrimidin-4-yl}piperazin-1-yl)methyl]piperidin-1-yl}methyl)piperidin-1-yl]-7-methoxy-1-oxo-2,3-dihydro-1H-isoindol-2-yl}piperidine-2,6-dione] |
|  |  | < 10 | 50 to 70 |  | CC1(Oc2ccc3[nH]nc(-c4cc(N5CCC(CN6C[C@@H]7C[C@H]6CN7CC6CCN(c7ccc8c(c7F)CN(C7CCC(=O)NC7=O)C8=O)CC6)CC5)ncn4)c3c2)CC1 (stereo partly drawn) [Compound 230, 3-[4-fluoro-5-(4-{[(1S,4S)-5-[(1-{6-[5-(1-methylcyclopropoxy)-1H-indazol-3-yl]pyrimidin-4-yl}piperidin-4-yl)methyl]-2,5-diazabicyclo[2.2.1]heptan-2-yl]methyl}piperidin-1-yl)-1-oxo-2,3-dihydro-1H-isoindol-2-yl]piperidine-2,6-dione] |
| ≥ 70 | 10 to 50 |  |  |  | CC1(Oc2ccc3[nH]nc(-c4cc(N5CCN(C[C@H]6CC[C@H](OC7CCN(c8c(F)cc9c(c8F)CN(C8CCC(=O)NC8=O)C9=O)CC7)CC6)CC5)ncn4)c3c2)CC1 (some centres unmarked) [Compound 286, 3-[4,6-difluoro-1-oxo-5-(4-{[(1r,4r)-4-[(4-{6-[5-(1-methylcyclopropoxy)-1H-indazol-3-yl]pyrimidin-4-yl}piperazin-1-yl)methyl]cyclohexyl]oxy}piperidin-1-yl)-2,3-dihydro-1H-isoindol-2-yl]piperidine-2,6-dione] |
| 50 to 70 | < 10 |  |  |  | Cc1c(N2CCC(O[C@H]3CC[C@H](CN4CCN(c5cc(-c6n[nH]c7ccc(OC8(C)CC8)cc67)ncn5)CC4)CC3)CC2)ccc2c1CN(C1CCC(=O)NC1=O)C2=O (some centres unmarked) [Compound 333, 3-(4-methyl-5-(4-(((1r,4r)-4-((4-(6-(5-(1-methylcyclopropoxy)-1H-indazol-3-yl)pyrimidin-4-yl)piperazin-1-yl)methyl)cyclohexyl)oxy)piperidin-1-yl)-1-oxoisoindolin-2-yl)piperidine-2,6-dione] |
|  |  | < 10 | 50 to 70 |  | CC1(Oc2ccc3n[nH]c(-c4cc(N5CCC(O[C@H]6CC[C@H](OC7CCN(c8cc9c(cc8F)C(=O)N(C8CCC(=O)NC8=O)C9)CC7)CC6)CC5)ncn4)c3c2)CC1 (some centres unmarked) [Compound 244, 3-[6-fluoro-1-oxo-5-(4-{[(1r,4r)-4-[(1-{6-[5-(1-methylcyclopropoxy)-2H-indazol-3-yl]pyrimidin-4-yl}piperidin-4-yl)oxy]cyclohexyl]oxy}piperidin-1-yl)-2,3-dihydro-1H-isoindol-2-yl]piperidine-2,6-dione] |
|  |  |  |  | Dmax [1]: ≥ 70%; DC50 [2]: < 10 nM | CC1(Oc2cc3c(-c4cc(N5CCC(CN6CCC(F)(CN7CCN(c8cc9c(cc8F)C(=O)N(C8CCC(=O)NC8=O)C9)CC7)CC6)CC5)ncn4)[nH]nc3cc2F)CC1 (centres unmarked) [Compound 193, 3-[6-fluoro-5-[4-[[4-fluoro-1-[[1-[6-[6-fluoro-5-(1-methylcyclopropoxy)-2H-indazol-3-yl]pyrimidin-4-yl]-4-piperidyl]methyl]-4-piperidyl]methyl]piperazin-1-yl]-1-oxo-isoindolin-2-yl]piperidine-2,6-dione] |
|  |  |  |  | Dmax [1]: ≥ 70%; DC50 [2]: < 10 nM | CC1(Oc2ccc3[nH]nc(-c4cc(N5CCN(CC6(F)CCN(CC7CCN(c8ccc9c(c8F)CN(C8CCC(=O)NC8=O)C9=O)CC7)CC6)CC5)ncn4)c3c2)CC1 (centres unmarked) [Compound 182, 3-[4-fluoro-5-[4-[[4-fluoro-4-[[4-[6-[5-(1-methylcyclopropoxy)-1H-indazol-3-yl]pyrimidin-4-yl]piperazin-1-yl]methyl]-1-piperidyl]methyl]-1-piperidyl]-1-oxo-isoindolin-2-yl]piperidine-2,6-dione] |
|  |  | < 10 | 50 to 70 |  | CC1(Oc2ccc3n[nH]c(-c4cc(N5CCC(CN6C[C@H]7C[C@@H]6CN7CC6CCN(c7ccc8c(c7F)CN(C7CCC(=O)NC7=O)C8=O)CC6)CC5)ncn4)c3c2)CC1 (stereo partly drawn) [Compound 226, 3-[4-fluoro-5-(4-{[(1R,4R)-5-[(1-{6-[5-(1-methylcyclopropoxy)-2H-indazol-3-yl]pyrimidin-4-yl}piperidin-4-yl)methyl]-2,5-diazabicyclo[2.2.1]heptan-2-yl]methyl}piperidin-1-yl)-1-oxo-2,3-dihydro-1H-isoindol-2-yl]piperidine-2,6-dione] |
|  |  |  |  | Dmax (endogenous HiBit-tagged LRRK2 in HEK293 cells, 24 hours, read-out: **Endogenous WT Dmax (%)): ≥ 70%; DC50 (endogenous HiBit-tagged LRRK2 in HEK293 cells, 24 hours, read-out: *Endogenous WT DC50): < 10 nM | C[C@H]1CN(c2cc(-c3[nH]nc4ccc(OC5(C)CC5)cc34)ncn2)CCN1CC(=O)N1CCC(CN2CCN(c3ccc4c(c3)C(=O)N(C3CCC(=O)NC3=O)C4=O)CC2)CC1 (stereo partly drawn) [Compound 59, 2-(2,6-dioxo-3-piperidyl)-5-[4-[[1-[2-[(2S)-2-methyl-4-[6-[5-(1-methylcyclopropoxy)-2H-indazol-3-yl]pyrimidin-4-yl]piperazin-1-yl]acetyl]-4-piperidyl]methyl]piperazin-1-yl]isoindoline-1,3-dione] |
|  |  |  |  | Dmax [1]: ≥ 70%; DC50 [2]: < 10 nM | CC1(Oc2ccc3n[nH]c(-c4cc(N5CCN(CC6(F)CCN(CC7CCN(c8cc9c(cc8F)C(=O)N(C8CCC(=O)NC8=O)C9)CC7)CC6)CC5)ncn4)c3c2)CC1 (centres unmarked) [Compound 183, 3-[6-fluoro-5-[4-[[4-fluoro-4-[[4-[6-[5-(1-methylcyclopropoxy)-2H-indazol-3-yl]pyrimidin-4-yl]piperazin-1-yl]methyl]-1-piperidyl]methyl]-1-piperidyl]-1-oxo-isoindolin-2-yl]piperidine-2,6-dione] |
| 50 to 70 | < 10 |  |  |  | C[C@@H]1CN(c2cc(-c3n[nH]c4ccc(OC5(C)CC5)cc34)ncn2)C[C@H](C)N1C[C@H]1CC[C@H](OC2CCN(c3ccc4c(c3F)CN(C3CCC(=O)NC3=O)C4=O)CC2)CC1 (stereo partly drawn) [Compound 352, 3-[4-fluoro-1-oxo-5-(4-{[(1r,4r)-4-{[(2R,6S)-2,6-dimethyl-4-{6-[5-(1-methylcyclopropoxy)-1H-indazol-3-yl]pyrimidin-4-yl}piperazin-1-yl]methyl}cyclohexyl]oxy}piperidin-1-yl)-2,3-dihydro-1H-isoindol-2-yl]piperidine-2,6-dione] |
|  |  | < 10 | 50 to 70 |  | Cc1nc(-c2n[nH]c3ccc(OC4(C)CC4)cc23)cc(N2CCN(C[C@H]3CC[C@H](OC4CCN(c5ccc6c(c5F)CN(C5CCC(=O)NC5=O)C6=O)CC4)CC3)CC2)n1 (some centres unmarked) [Compound 365, 3-[4-fluoro-1-oxo-5-(4-{[(1r,4r)-4-[(4-{2-methyl-6-[5-(1-methylcyclopropoxy)-1H-indazol-3-yl]pyrimidin-4-yl}piperazin-1-yl)methyl]cyclohexyl]oxy}piperidin-1-yl)-2,3-dihydro-1H-isoindol-2-yl]piperidine-2,6-dione] |
| 50 to 70 | < 10 |  |  |  | CC1(Oc2ccc3[nH]nc(-c4cc(N5CCC(CN6CC[C@H](OC7CCN(c8ccc9c(c8F)CN(C8CCC(=O)NC8=O)C9=O)CC7)CC6(C)C)CC5)ncn4)c3c2)CC1 (stereo partly drawn) [Compound 313, 3-[5-(4-{[(4S)-2,2-dimethyl-1-[(1-{6-[5-(1-methylcyclopropoxy)-1H-indazol-3-yl]pyrimidin-4-yl}piperidin-4-yl)methyl]piperidin-4-yl]oxy}piperidin-1-yl)-4-fluoro-1-oxo-2,3-dihydro-1H-isoindol-2-yl]piperidine-2,6-dione] |
